Among the data in PubChem BioAssay (NCI) are TGI values, retold here.

Molecules are shown by their SMILES.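 Tested at 5 concentrations; 48 h exposure; 96-well plates; endpoints linearly interpolated, else capped at highest concentration. TGI: concentration producing complete growth inhibition.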 Where only a bound is given, the exact number is not on record here.

Some test systems named below: ACHN renal; M14 melanoma; HCT-116 colon; SR leukemia; IGROV1 ovarian; HOP-92 NSCLC; NCI-H460 lung; NCI-H226 lung; HS 578T breast; CAKI-1 renal.
Test in all cases: DTP human tumour cell line panel, 48 h

`CC(=O)OC/C=C/Cn1nc(Br)c(=O)[nH]c1=O`: the total growth inhibition concentration (TGI) in the experiment on ACHN renal, with M14 melanoma, in the experiment on HCT-116 colon, in the experiment on SR leukemia, in the experiment on IGROV1 ovarian and with HOP-92 NSCLC was more than 100 µM each time. The TGI with NCI-H460 lung, in the experiment on NCI-H226 lung, in the experiment on HS 578T breast and in the experiment on CAKI-1 renal was more than 100 µM in each case.
On to `C[C@@H](c1ccccc1)N(CC#N)[C@H]1CCC[C@]1(O)/C=C/c1ccc2c(c1)OCO2`, for which the total growth inhibition concentration (TGI) with ACHN renal is 8.04 µM; in the experiment on M14 melanoma, more than 25 µM; with HCT-116 colon it was more than 25 µM; with SR leukemia it was more than 25 µM; in the experiment with IGROV1 ovarian, more than 25 µM; in the experiment with HOP-92 NSCLC, more than 25 µM. For the same molecule, the TGI with NCI-H460 lung, in the experiment with NCI-H226 lung, with HS 578T breast and with CAKI-1 renal was more than 25 µM each time.
For the molecule `CC(=O)Oc1cc(OC(C)=O)c2c(c1C)CC[C@@H]1[C@@H]2CC[C@]2(C)[C@@H](OC(C)=O)CC[C@@H]12`, the TGI with ACHN renal was found to be 31.2 µM; with M14 melanoma it was 34.9 µM; with HCT-116 colon it was 29.2 µM; in the experiment on SR leukemia it was 73.6 µM; with IGROV1 ovarian, 34.4 µM; with HOP-92 NSCLC it was 35.2 µM. Also, the TGI in the experiment on NCI-H460 lung was 34.1 µM; with NCI-H226 lung, 34.2 µM; in the experiment with HS 578T breast it was 53.2 µM; with CAKI-1 renal it was 52.1 µM.
Regarding `O=C(C[N+]1(c2ccccc2)CCOCC1)c1ccccc1`, the total growth inhibition concentration (TGI) with ACHN renal, in the experiment on M14 melanoma, with HCT-116 colon, in the experiment on SR leukemia, with IGROV1 ovarian and in the experiment with HOP-92 NSCLC was more than 100 µM each time. The TGI in the experiment on NCI-H460 lung, in the experiment on NCI-H226 lung, in the experiment with HS 578T breast and with CAKI-1 renal was more than 100 µM throughout.
Turning to `CCCCCNC(=O)OC1CCn2c1nc1c2C(=O)C(C)=C(N2CC2)C1=O` (stereo not given), the total growth inhibition concentration (TGI) was 2.81 µM in the experiment with ACHN renal; 4.04 µM in the experiment on M14 melanoma; 4.33 µM with HCT-116 colon; more than 100 µM in the experiment on SR leukemia; 3.43 µM with IGROV1 ovarian; 72 µM in the experiment on HOP-92 NSCLC. Besides, the TGI in the experiment on NCI-H460 lung amounted to 1.05 µM; in the experiment on NCI-H226 lung, 4.26 µM; with HS 578T breast it was 6.24 µM; in the experiment on CAKI-1 renal, 2.9 µM.
As to `Cc1cc(NS(=O)(=O)c2ccc(NC(NC(=O)OC(C)C)(C(F)(F)F)C(F)(F)F)cc2)nc(C)n1`, the TGI in the experiment on ACHN renal, in the experiment on M14 melanoma, in the experiment on HCT-116 colon, in the experiment on SR leukemia, with IGROV1 ovarian and in the experiment on HOP-92 NSCLC was more than 100 µM each time. For the same molecule, the total growth inhibition concentration (TGI) in the experiment with NCI-H460 lung, in the experiment on NCI-H226 lung, in the experiment with HS 578T breast and in the experiment on CAKI-1 renal was more than 100 µM each time.
For `N#Cc1c2c(c(Nc3ccc(Cl)cc3)n3c1nc1ccccc13)CCCC2`, the total growth inhibition concentration (TGI) in the experiment with ACHN renal, in the experiment on M14 melanoma, in the experiment with HCT-116 colon, with SR leukemia, in the experiment with IGROV1 ovarian and in the experiment with HOP-92 NSCLC was more than 100 µM throughout. For the same molecule, the concentration for total growth inhibition (TGI) in the experiment with NCI-H460 lung was more than 100 µM; with NCI-H226 lung, more than 100 µM; with HS 578T breast it was more than 87.4 µM; with CAKI-1 renal it was more than 100 µM.
For `CN1Cc2c(ccc3c2OCO3)[C@@H]2[C@H](O)Cc3cc4c(cc3[C@@H]21)OCO4`, the TGI was more than 100 µM in the experiment on ACHN renal; more than 28.4 µM with M14 melanoma; more than 44.7 µM in the experiment with HCT-116 colon; more than 100 µM in the experiment with SR leukemia; more than 100 µM in the experiment on IGROV1 ovarian; more than 100 µM with HOP-92 NSCLC. The TGI is more than 100 µM in the experiment with NCI-H460 lung, 9.94 µM with NCI-H226 lung, more than 100 µM in the experiment with HS 578T breast and more than 100 µM in the experiment on CAKI-1 renal.
As for `O=C1c2sccc2C(=O)c2c(CO)csc21`, the TGI in the experiment with ACHN renal was 12.2 µM; with M14 melanoma, 7.55 µM; in the experiment on HCT-116 colon, 9.47 µM; in the experiment with SR leukemia, more than 73.2 µM; in the experiment with IGROV1 ovarian it was 17.7 µM; with HOP-92 NSCLC, 26.1 µM. Besides, the TGI in the experiment on NCI-H460 lung was determined as 6.96 µM; in the experiment with NCI-H226 lung it was 15 µM; in the experiment on HS 578T breast it was 33.7 µM; in the experiment on CAKI-1 renal it was 48.2 µM.
On to `CCCCCCCCCCCCCCCC(=O)OCC(COP(=O)(O)OCCNC(=O)CCSSc1ccccn1)OC(=O)CCCCCCCCCCCCCCC` (stereo not given), for which the TGI in the experiment with ACHN renal, in the experiment on M14 melanoma, in the experiment with HCT-116 colon, in the experiment with SR leukemia, in the experiment on IGROV1 ovarian and in the experiment with HOP-92 NSCLC was more than 100 µM throughout. In addition, the TGI in the experiment on NCI-H460 lung, in the experiment on NCI-H226 lung, in the experiment on HS 578T breast and in the experiment with CAKI-1 renal was more than 100 µM throughout.
As for `CNC(=O)N(C)C(=O)c1ccccc1C(=O)N(C)C(=O)NC`, the TGI in the experiment with ACHN renal, in the experiment on M14 melanoma, in the experiment with HCT-116 colon, in the experiment on SR leukemia, with IGROV1 ovarian and in the experiment with HOP-92 NSCLC was more than 10 µM in each case. The total growth inhibition concentration (TGI) in the experiment with NCI-H460 lung, in the experiment on NCI-H226 lung, in the experiment on HS 578T breast and in the experiment with CAKI-1 renal was more than 10 µM throughout.
As to `CCOC(=O)c1c(SCCN(CC)CC)n(-c2ccccc2)c(=S)n(-c2ccccc2)c1=O`, the TGI in the experiment with ACHN renal stood at 3.2 µM; in the experiment on M14 melanoma it was 3.13 µM; in the experiment with HCT-116 colon, 8.13 µM; with SR leukemia, 2.6 µM; in the experiment on IGROV1 ovarian, 13.2 µM; in the experiment on HOP-92 NSCLC, 4.15 µM. In addition, the total growth inhibition concentration (TGI) in the experiment on NCI-H460 lung is 15.6 µM; in the experiment with NCI-H226 lung, 41.1 µM; in the experiment on HS 578T breast, 28 µM; in the experiment with CAKI-1 renal it was 4.68 µM.
In the case of `COc1ccc(-c2cc(=O)c3cc(OC)c(OC)cc3[nH]2)cc1OC`, the TGI in the experiment with ACHN renal, with M14 melanoma, with HCT-116 colon, in the experiment with SR leukemia, in the experiment with IGROV1 ovarian and in the experiment with HOP-92 NSCLC was more than 100 µM throughout. Further, the TGI in the experiment with NCI-H460 lung, in the experiment with NCI-H226 lung, in the experiment with HS 578T breast and with CAKI-1 renal was more than 100 µM throughout.
On to `CC(C)[C@H](NC(=O)OCc1ccccc1)C(=O)N[C@H](/C=C/C(=O)OC(C)(C)C)CO`, for which the concentration for total growth inhibition (TGI) with ACHN renal, with M14 melanoma, with HCT-116 colon, in the experiment with SR leukemia, in the experiment with IGROV1 ovarian and with HOP-92 NSCLC was more than 100 µM in each case. Also, the TGI in the experiment on NCI-H460 lung, in the experiment with NCI-H226 lung, in the experiment with HS 578T breast and with CAKI-1 renal was more than 100 µM in each case.
With `O=C(CCc1ccccc1)NCCc1ccc(O)c(O)c1`, the TGI in the experiment on ACHN renal was more than 100 µM; with M14 melanoma, more than 100 µM; in the experiment on HCT-116 colon it was more than 66.7 µM; with SR leukemia it was more than 77.3 µM; in the experiment on IGROV1 ovarian, more than 100 µM; with HOP-92 NSCLC, more than 78.7 µM. Further, the TGI was more than 100 µM with NCI-H460 lung, more than 100 µM with NCI-H226 lung, more than 100 µM in the experiment with HS 578T breast and 29.4 µM in the experiment with CAKI-1 renal.
Consider `C/C(=C\CNc1ncnc2c1ncn2CCC#N)CO`, for which the TGI in the experiment on ACHN renal, in the experiment on M14 melanoma, in the experiment with HCT-116 colon, with SR leukemia, in the experiment with IGROV1 ovarian and in the experiment with HOP-92 NSCLC was more than 100 µM each time. Moreover, the total growth inhibition concentration (TGI) in the experiment with NCI-H460 lung, in the experiment with NCI-H226 lung, with HS 578T breast and with CAKI-1 renal was more than 100 µM in each case.
Turning to `FC(F)(Sc1nc2ccccc2[nH]1)c1nc2ccccc2o1`, the TGI in the experiment with ACHN renal, in the experiment with M14 melanoma, with HCT-116 colon, with SR leukemia, in the experiment with IGROV1 ovarian and in the experiment with HOP-92 NSCLC was more than 100 µM in each case. The TGI in the experiment with NCI-H460 lung, with NCI-H226 lung, with HS 578T breast and in the experiment with CAKI-1 renal was more than 100 µM in each case.
As for `Nc1c(/C=C/c2cc3cc(C4=NCCN4)ccc3o2)[nH]c2cc(C3=NCCN3)ccc12`, the TGI in the experiment with ACHN renal, in the experiment with M14 melanoma, in the experiment on HCT-116 colon, with SR leukemia, in the experiment on IGROV1 ovarian and in the experiment on HOP-92 NSCLC was more than 100 µM in each case. The TGI in the experiment with NCI-H460 lung, with NCI-H226 lung, in the experiment with HS 578T breast and with CAKI-1 renal was more than 100 µM in each case.
On to `CCCCN1/C(=N/Nc2n[nH]c(=O)c3ccccc23)SCC1c1ccc(Cl)cc1` (stereo not given), for which the total growth inhibition concentration (TGI) with ACHN renal was more than 100 µM; in the experiment on M14 melanoma, 19.5 µM; with HCT-116 colon, 44.8 µM; in the experiment on SR leukemia, 24.6 µM; in the experiment with IGROV1 ovarian, 41.1 µM; in the experiment on HOP-92 NSCLC it was more than 100 µM. For the same molecule, the total growth inhibition concentration (TGI) in the experiment on NCI-H460 lung amounted to 24.8 µM; in the experiment with NCI-H226 lung it was 27.5 µM; in the experiment on HS 578T breast it was 56.2 µM; in the experiment with CAKI-1 renal, 77.4 µM.
Consider `CCOP(=O)(OCC)/C(C#N)=C(\C)c1ccco1`, for which the total growth inhibition concentration (TGI) in the experiment with ACHN renal, with M14 melanoma, in the experiment with HCT-116 colon, with SR leukemia, in the experiment with IGROV1 ovarian and with HOP-92 NSCLC was more than 10 µM in each case. For the same molecule, the concentration for total growth inhibition (TGI) in the experiment on NCI-H460 lung, in the experiment on NCI-H226 lung, in the experiment with HS 578T breast and in the experiment on CAKI-1 renal was more than 10 µM throughout.
